Test system: 843126-344-R-J1-PDC complex spheroid viability
Test: Anticancer human tumor 843126-344-R-J1-PDC patient-derived melanoma cell line growth inhibition [POLQ]
Conditions: for IC50: curve of first compound; for viability, T/C: stronger effect = lower value
How it was run: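 Complex spheroid viability model combining PDC tumour cells with endothelial (HUVEC) and MSC stromal cells. Novobiocin, ART-558 or RP6685 were tested singly and in combination with standard and investigational anticancer drugs. Each was titrated in half-log steps from near clinical Cmax, or from 10 microM where Cmax was unknown.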

[1] = second compound 0.0316 µM, first compound 0.0316 µM
[2] = second compound 0.0316 µM, first compound 0.1 µM
[3] = second compound 0.1 µM, first compound 0.0316 µM
[4] = second compound 0.1 µM, first compound 0.1 µM
[5] = second compound 0.316 µM, first compound 0.0316 µM
[6] = second compound 0.316 µM, first compound 0.1 µM
[7] = second compound 1 µM, first compound 0.0316 µM
[8] = second compound 1 µM, first compound 0.1 µM
[9] = second compound 3.16 µM, first compound 0.0316 µM
[10] = second compound 3.16 µM, first compound 0.1 µM
[11] = second compound 10 µM, first compound 0.0316 µM
[12] = second compound 10 µM, first compound 0.1 µM
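For viability, T/C in this document: spheroids exposed to drugs for seven days before readout.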

Compound: Cn1ncnc1[C@H]1c2n[nH]c(=O)c3cc(F)cc(c23)N[C@@H]1c1ccc(F)cc1 + COC1C(OC(N)=O)C(O)C(Oc2ccc3c(O)c(NC(=O)c4ccc(O)c(CC=C(C)C)c4)c(=O)oc3c2C)OC1(C)C
- IC50 (second compound 0.0316 µM): > 0.1 µM
- IC50 (second compound 0.1 µM): > 0.1 µM
- IC50 (second compound 0.316 µM): > 0.1 µM
- IC50 (second compound 1 µM): > 0.1 µM
- IC50 (second compound 3.16 µM): > 0.1 µM
- IC50 (second compound 10 µM): > 0.1 µM
- viability, T/C (second compound 0.0316 µM, first compound 0.000316 µM): 83.3%
- viability, T/C (second compound 0.0316 µM, first compound 0.001 µM): 87.8%
- viability, T/C (second compound 0.0316 µM, first compound 0.00316 µM): 108%
- viability, T/C (second compound 0.0316 µM, first compound 0.01 µM): 106%
- viability, T/C [1]: 97.8%
- viability, T/C [2]: 76.5%
- viability, T/C (second compound 0.1 µM, first compound 0.000316 µM): 96.7%
- viability, T/C (second compound 0.1 µM, first compound 0.001 µM): 103%
- viability, T/C (second compound 0.1 µM, first compound 0.00316 µM): 93.5%
- viability, T/C (second compound 0.1 µM, first compound 0.01 µM): 91.8%
- viability, T/C [3]: 121%
- viability, T/C [4]: 87.2%
- viability, T/C (second compound 0.316 µM, first compound 0.000316 µM): 90.1%
- viability, T/C (second compound 0.316 µM, first compound 0.001 µM): 109%
- viability, T/C (second compound 0.316 µM, first compound 0.00316 µM): 81.2%
- viability, T/C (second compound 0.316 µM, first compound 0.01 µM): 102%
- viability, T/C [5]: 90.3%
- viability, T/C [6]: 94.2%
- viability, T/C (second compound 1 µM, first compound 0.000316 µM): 89.7%
- viability, T/C (second compound 1 µM, first compound 0.001 µM): 106%
- viability, T/C (second compound 1 µM, first compound 0.00316 µM): 105%
- viability, T/C (second compound 1 µM, first compound 0.01 µM): 84.3%
- viability, T/C [7]: 118%
- viability, T/C [8]: 76.1%
- viability, T/C (second compound 3.16 µM, first compound 0.000316 µM): 85.1%
- viability, T/C (second compound 3.16 µM, first compound 0.001 µM): 99.1%
- viability, T/C (second compound 3.16 µM, first compound 0.00316 µM): 101%
- viability, T/C (second compound 3.16 µM, first compound 0.01 µM): 89.9%
- viability, T/C [9]: 120%
- viability, T/C [10]: 94.1%
- viability, T/C (second compound 10 µM, first compound 0.000316 µM): 83.9%
- viability, T/C (second compound 10 µM, first compound 0.001 µM): 102%
- viability, T/C (second compound 10 µM, first compound 0.00316 µM): 101%
- viability, T/C (second compound 10 µM, first compound 0.01 µM): 86.9%
- viability, T/C [11]: 80.9%
- viability, T/C [12]: 81.7%

Compound: COc1cc2cc(C(=O)CCC(=O)O)sc2cc1OC + Nc1ccc(C#CCN(C(=O)Cc2ncc(C(F)(F)F)cc2C(F)(F)F)c2ccc(F)cc2)nn1
- IC50 (second compound 0.0316 µM): > 10 µM
- IC50 (second compound 0.1 µM): > 10 µM
- IC50 (second compound 0.316 µM): > 10 µM
- IC50 (second compound 1 µM): > 10 µM
- IC50 (second compound 3.16 µM): > 10 µM
- IC50 (second compound 10 µM): > 10 µM
- viability, T/C [1]: 84.1%
- viability, T/C [2]: 82.5%
- viability, T/C (second compound 0.0316 µM, first compound 0.316 µM): 81.6%
- viability, T/C (second compound 0.0316 µM, first compound 1 µM): 99.8%
- viability, T/C (second compound 0.0316 µM, first compound 3.16 µM): 90.2%
- viability, T/C (second compound 0.0316 µM, first compound 10 µM): 89.2%
- viability, T/C [3]: 77.8%
- viability, T/C [4]: 103%
- viability, T/C (second compound 0.1 µM, first compound 0.316 µM): 92%
- viability, T/C (second compound 0.1 µM, first compound 1 µM): 102%
- viability, T/C (second compound 0.1 µM, first compound 3.16 µM): 89.9%
- viability, T/C (second compound 0.1 µM, first compound 10 µM): 107%
- viability, T/C [5]: 96.1%
- viability, T/C [6]: 94.2%
- viability, T/C (second compound 0.316 µM, first compound 0.316 µM): 104%
- viability, T/C (second compound 0.316 µM, first compound 1 µM): 96.7%
- viability, T/C (second compound 0.316 µM, first compound 3.16 µM): 108%
- viability, T/C (second compound 0.316 µM, first compound 10 µM): 82.3%
- viability, T/C [7]: 96.7%
- viability, T/C [8]: 77.7%
- viability, T/C (second compound 1 µM, first compound 0.316 µM): 93.8%
- viability, T/C (second compound 1 µM, first compound 1 µM): 83.2%
- viability, T/C (second compound 1 µM, first compound 3.16 µM): 90.1%
- viability, T/C (second compound 1 µM, first compound 10 µM): 76.8%
- viability, T/C [9]: 96.9%
- viability, T/C [10]: 83.7%
- viability, T/C (second compound 3.16 µM, first compound 0.316 µM): 89.1%
- viability, T/C (second compound 3.16 µM, first compound 1 µM): 86%
- viability, T/C (second compound 3.16 µM, first compound 3.16 µM): 94.7%
- viability, T/C (second compound 3.16 µM, first compound 10 µM): 91%
- viability, T/C [11]: 77.2%
- viability, T/C [12]: 84.3%
- viability, T/C (second compound 10 µM, first compound 0.316 µM): 92.2%
- viability, T/C (second compound 10 µM, first compound 1 µM): 79.1%
- viability, T/C (second compound 10 µM, first compound 3.16 µM): 92.7%
- viability, T/C (second compound 10 µM, first compound 10 µM): 94.1%

Compound: CC(=O)O[C@H]1C(=O)[C@@]2(C)[C@H]([C@H](OC(=O)c3ccccc3)[C@]3(O)C[C@H](OC(=O)[C@H](O)[C@@H](NC(=O)c4ccccc4)c4ccccc4)C(C)=C1C3(C)C)[C@]1(OC(C)=O)CO[C@@H]1C[C@@H]2O + COC1C(OC(N)=O)C(O)C(Oc2ccc3c(O)c(NC(=O)c4ccc(O)c(CC=C(C)C)c4)c(=O)oc3c2C)OC1(C)C
- IC50 (second compound 0.0316 µM): > 3 µM
- IC50 (second compound 0.1 µM): > 3 µM
- IC50 (second compound 0.316 µM): > 3 µM
- IC50 (second compound 1 µM): > 3 µM
- IC50 (second compound 3.16 µM): > 3 µM
- IC50 (second compound 10 µM): > 3 µM
- viability, T/C (second compound 0.0316 µM, first compound 0.00949 µM): 55.4%
- viability, T/C (second compound 0.0316 µM, first compound 0.03 µM): 70%
- viability, T/C (second compound 0.0316 µM, first compound 0.0949 µM): 56%
- viability, T/C (second compound 0.0316 µM, first compound 0.3 µM): 69.8%
- viability, T/C (second compound 0.0316 µM, first compound 0.949 µM): 61.2%
- viability, T/C (second compound 0.0316 µM, first compound 3 µM): 68.9%
- viability, T/C (second compound 0.1 µM, first compound 0.00949 µM): 63.9%
- viability, T/C (second compound 0.1 µM, first compound 0.03 µM): 60.9%
- viability, T/C (second compound 0.1 µM, first compound 0.0949 µM): 49.1%
- viability, T/C (second compound 0.1 µM, first compound 0.3 µM): 55.3%
- viability, T/C (second compound 0.1 µM, first compound 0.949 µM): 55.5%
- viability, T/C (second compound 0.1 µM, first compound 3 µM): 57.5%
- viability, T/C (second compound 0.316 µM, first compound 0.00949 µM): 55.6%
- viability, T/C (second compound 0.316 µM, first compound 0.03 µM): 64.6%
- viability, T/C (second compound 0.316 µM, first compound 0.0949 µM): 65.5%
- viability, T/C (second compound 0.316 µM, first compound 0.3 µM): 57.1%
- viability, T/C (second compound 0.316 µM, first compound 0.949 µM): 55.7%
- viability, T/C (second compound 0.316 µM, first compound 3 µM): 61.1%
- viability, T/C (second compound 1 µM, first compound 0.00949 µM): 60.2%
- viability, T/C (second compound 1 µM, first compound 0.03 µM): 59.8%
- viability, T/C (second compound 1 µM, first compound 0.0949 µM): 61.6%
- viability, T/C (second compound 1 µM, first compound 0.3 µM): 60.4%
- viability, T/C (second compound 1 µM, first compound 0.949 µM): 52.5%
- viability, T/C (second compound 1 µM, first compound 3 µM): 52.1%
- viability, T/C (second compound 3.16 µM, first compound 0.00949 µM): 63.6%
- viability, T/C (second compound 3.16 µM, first compound 0.03 µM): 62.2%
- viability, T/C (second compound 3.16 µM, first compound 0.0949 µM): 53.8%
- viability, T/C (second compound 3.16 µM, first compound 0.3 µM): 57.2%
- viability, T/C (second compound 3.16 µM, first compound 0.949 µM): 60.7%
- viability, T/C (second compound 3.16 µM, first compound 3 µM): 50.9%
- viability, T/C (second compound 10 µM, first compound 0.00949 µM): 65.4%
- viability, T/C (second compound 10 µM, first compound 0.03 µM): 55.8%
- viability, T/C (second compound 10 µM, first compound 0.0949 µM): 52.9%
- viability, T/C (second compound 10 µM, first compound 0.3 µM): 54.6%
- viability, T/C (second compound 10 µM, first compound 0.949 µM): 66.1%
- viability, T/C (second compound 10 µM, first compound 3 µM): 57.1%

— PubChem BioAssay AID1963837 (Molecular Pharmacology Branch, DTP, NCI, 2024)
